Measurements taken from PubChem BioAssay AID1259407 (Chemical Carcinogenesis Research Information System (CCRIS), 2018).
Calls of active or inactive are those of the source. No rule for the calls is given here.

Tested on: CCRIS mutagenicity, Ames/micronucleus/aberration tests
Assay: CCRIS mutagenicity studies

Nc1cccc(N)c1
mutagenic call (End Point: IN VITRO CHROMOSOMAL ABERRATIONS, Test System: CHINESE HAMSTER LUNG CELLS (CHL), Metabolic Activation: RAT, LIVER, S-9, KC-400): active; positive (structural changes) | mutagenic call (End Point: IN VITRO CHROMOSOMAL ABERRATIONS, Test System: CHINESE HAMSTER OVARY CELLS (CHO), Metabolic Activation: NONE): active; positive (structural changes) | mutagenic call (End Point: IN VITRO CHROMOSOMAL ABERRATIONS, Test System: CHINESE HAMSTER OVARY CELLS (CHO), Metabolic Activation: RAT, LIVER, S-9, AROCLOR 1254): inactive; negative | mutagenic call (End Point: IN VITRO CHROMOSOMAL ABERRATIONS, Test System: CHL CELLS, Metabolic Activation: NONE): active; positive (structural changes) | mutagenic call (End Point: IN VITRO CHROMOSOMAL ABERRATIONS, Test System: CHL CELLS, Metabolic Activation: RAT, LIVER, S-9, SODIUM PHENOBARBITAL AND 5,6-BENZOFLAVONE): active; positive (structural changes) | mutagenic call (End Point: IN VITRO CHROMOSOMAL ABERRATIONS, Test System: CHL/IU CELLS, Metabolic Activation: NONE): active; positive (ploidy changes) | mutagenic call (End Point: IN VITRO MICRONUCLEUS, Test System: CHL/IU CELLS, Metabolic Activation: NONE): active; positive | mutagenic call (Test System: AMES SALMONELLA TYPHIMURIUM, Strain/Indicator: TA97, Metabolic Activation: HAMSTER, LIVER, S-9, AROCLOR 1254 (10%), Method: PREINCUBATION): active; positive | mutagenic call (Test System: AMES SALMONELLA TYPHIMURIUM, Strain/Indicator: TA97, Metabolic Activation: NONE, Method: PREINCUBATION): inactive; negative | mutagenic call (Test System: AMES SALMONELLA TYPHIMURIUM, Strain/Indicator: TA97, Metabolic Activation: RAT, LIVER, S-9, AROCLOR 1254 (4 OR 10%), Method: STANDARD PLATE): active; positive | mutagenic call (Test System: AMES SALMONELLA TYPHIMURIUM, Strain/Indicator: TA97, Metabolic Activation: RAT, LIVER, S-9, AROCLOR 1254 (10%), Method: PREINCUBATION): active; positive | mutagenic call (Test System: AMES SALMONELLA TYPHIMURIUM, Strain/Indicator: TA98(1,8-DNP6), Metabolic Activation: TOBACCO, TX1 CELLS, Method: PREINCUBATION): inactive; negative | mutagenic call (Test System: AMES SALMONELLA TYPHIMURIUM, Strain/Indicator: TA98, Metabolic Activation: HAMSTER, LIVER, S-9, AROCLOR 1254 (10%), Method: PREINCUBATION): active; positive | mutagenic call (Test System: AMES SALMONELLA TYPHIMURIUM, Strain/Indicator: TA98, Metabolic Activation: PEA APICAL BUD S-9, Method: PREINCUBATION): active; positive | mutagenic call (Test System: AMES SALMONELLA TYPHIMURIUM, Strain/Indicator: TA98, Metabolic Activation: PEA APICAL BUD S-9, Method: STANDARD PLATE): active; positive | mutagenic call (Test System: AMES SALMONELLA TYPHIMURIUM, Strain/Indicator: TA98, Metabolic Activation: PLANT (PERSEA AMERICANA) S-117, Method: STANDARD PLATE): active; positive | mutagenic call (Test System: AMES SALMONELLA TYPHIMURIUM, Strain/Indicator: TA98, Metabolic Activation: PLANT (ZEA MAYS) S-9, Method: STANDARD PLATE): active; positive | mutagenic call (Test System: AMES SALMONELLA TYPHIMURIUM, Strain/Indicator: TA98, Metabolic Activation: RAT, BLADDER, S-9, PCB, Method: FLUCTUATION TEST): active; positive | mutagenic call (Test System: AMES SALMONELLA TYPHIMURIUM, Strain/Indicator: TA98, Metabolic Activation: RAT, LIVER, S-9, AROCLOR 1254 (10%), Method: PREINCUBATION): active; positive | mutagenic call (Test System: AMES SALMONELLA TYPHIMURIUM, Strain/Indicator: TA98, Metabolic Activation: RAT, LIVER, S-9, AROCLOR 1254, Method: PREINCUBATION): active; positive | mutagenic call (Test System: AMES SALMONELLA TYPHIMURIUM, Strain/Indicator: TA98, Metabolic Activation: RAT, LIVER, S-9, AROCLOR 1254, Method: STANDARD PLATE): active; positive | mutagenic call (Test System: AMES SALMONELLA TYPHIMURIUM, Strain/Indicator: TA98, Metabolic Activation: RAT, LIVER, S-9, PCB, Method: PREINCUBATION): active; positive | mutagenic call (Test System: AMES SALMONELLA TYPHIMURIUM, Strain/Indicator: TA98, Metabolic Activation: RAT, LIVER, S-9, PHENOBARBITAL AND 5,6-BENZOFLAVONE, Method: PREINCUBATION): active; positive | mutagenic call (Test System: AMES SALMONELLA TYPHIMURIUM, Strain/Indicator: TA98, Metabolic Activation: S-9, Method: PREINCUBATION): active; positive | mutagenic call (Test System: AMES SALMONELLA TYPHIMURIUM, Strain/Indicator: TA98, Metabolic Activation: TOBACCO, TX1 CELLS, Method: PREINCUBATION): active; positive | mutagenic call (Test System: AMES SALMONELLA TYPHIMURIUM, Strain/Indicator: TA100, Metabolic Activation: HAMSTER, LIVER, S-9, AROCLOR 1254 (10%), Method: PREINCUBATION): active; positive | mutagenic call (Test System: AMES SALMONELLA TYPHIMURIUM, Strain/Indicator: TA100, Metabolic Activation: NONE, Method: STANDARD PLATE): inactive; negative | mutagenic call (Test System: AMES SALMONELLA TYPHIMURIUM, Strain/Indicator: TA100, Metabolic Activation: PEA APICAL BUD S-9, Method: PREINCUBATION): inactive; negative | mutagenic call (Test System: AMES SALMONELLA TYPHIMURIUM, Strain/Indicator: TA100, Metabolic Activation: PEA APICAL BUD S-9, Method: STANDARD PLATE): inactive; negative | mutagenic call (Test System: AMES SALMONELLA TYPHIMURIUM, Strain/Indicator: TA100, Metabolic Activation: RAT, BLADDER, S-9, PCB, Method: FLUCTUATION TEST): active; positive | mutagenic call (Test System: AMES SALMONELLA TYPHIMURIUM, Strain/Indicator: TA100, Metabolic Activation: RAT, LIVER, S-9, AROCLOR 1254 (10%), Method: PREINCUBATION): active; positive | mutagenic call (Test System: AMES SALMONELLA TYPHIMURIUM, Strain/Indicator: TA100, Metabolic Activation: RAT, LIVER, S-9, AROCLOR 1254, Method: PREINCUBATION): active; positive | mutagenic call (Test System: AMES SALMONELLA TYPHIMURIUM, Strain/Indicator: TA100, Metabolic Activation: RAT, LIVER, S-9, PCB, Method: PREINCUBATION): active; positive
